# From ChEMBL document CHEMBL1828536, “The impact of fatty acids on the antibacterial properties of N-thiolated β-lactams” (2011)
# Columns and labels:
# Format in all cases: functional
# [1] = tested on: Staphylococcus aureus; assay: Antimicrobial activity against methicillin-resistant Staphylococcus aureus using tryptone soy broth
# [2] = tested on: Staphylococcus aureus; assay: Antimicrobial activity against methicillin-resistant Staphylococcus aureus using tryptone soy broth in presence of bovine serum albumin
# [3] = tested on: Staphylococcus aureus; assay: Antimicrobial activity against methicillin-resistant Staphylococcus aureus using tryptone soy broth in presence of oleic acid
# [4] = tested on: Staphylococcus aureus; assay: Antimicrobial activity against methicillin-resistant Staphylococcus aureus using tryptone soy broth in presence of tween-80
SMILES,MIC [1] [µg/mL],MIC [2] [µg/mL],MIC [3] [µg/mL],MIC [4] [µg/mL]
Oc1cc(Cl)ccc1Oc1ccc(Cl)cc1Cl [TRICLOSAN],20,20,2000,> 10000
CCC(C)SN1C(=O)[C@H](OC)[C@@H]1c1ccccc1Cl (some centres not stated),1000,–,2000,3000
